{"source": "paper PMC8899467", "about": "(Frontiers in Pharmacology, 2022)", "key": {"bovine fibrinogen": {"molecular_target": "T1, bovine fibrinogen (Bos taurus, UniProt P02672+P02676+P12799)", "T1 construct": "gene FGA; native plasma protein, Sigma-Aldrich; hexamer", "T1 sequence (P02672 20-615)": "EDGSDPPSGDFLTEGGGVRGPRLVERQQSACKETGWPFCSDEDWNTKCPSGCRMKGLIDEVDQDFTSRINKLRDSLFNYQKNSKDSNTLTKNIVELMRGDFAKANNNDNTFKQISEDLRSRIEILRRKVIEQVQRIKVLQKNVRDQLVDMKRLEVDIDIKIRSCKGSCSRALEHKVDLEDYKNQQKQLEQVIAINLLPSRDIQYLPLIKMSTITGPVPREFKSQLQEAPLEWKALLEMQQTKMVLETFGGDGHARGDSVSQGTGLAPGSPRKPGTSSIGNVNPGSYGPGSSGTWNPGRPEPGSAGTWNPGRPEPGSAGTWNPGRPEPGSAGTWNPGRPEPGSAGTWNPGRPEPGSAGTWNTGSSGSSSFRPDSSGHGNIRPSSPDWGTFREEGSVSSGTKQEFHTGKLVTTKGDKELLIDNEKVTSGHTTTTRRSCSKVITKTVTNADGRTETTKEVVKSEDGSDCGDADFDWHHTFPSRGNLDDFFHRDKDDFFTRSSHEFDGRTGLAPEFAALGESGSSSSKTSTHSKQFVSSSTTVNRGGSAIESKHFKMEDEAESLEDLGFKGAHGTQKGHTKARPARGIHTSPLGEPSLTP", "T1 sequence (P02676 1-468)": "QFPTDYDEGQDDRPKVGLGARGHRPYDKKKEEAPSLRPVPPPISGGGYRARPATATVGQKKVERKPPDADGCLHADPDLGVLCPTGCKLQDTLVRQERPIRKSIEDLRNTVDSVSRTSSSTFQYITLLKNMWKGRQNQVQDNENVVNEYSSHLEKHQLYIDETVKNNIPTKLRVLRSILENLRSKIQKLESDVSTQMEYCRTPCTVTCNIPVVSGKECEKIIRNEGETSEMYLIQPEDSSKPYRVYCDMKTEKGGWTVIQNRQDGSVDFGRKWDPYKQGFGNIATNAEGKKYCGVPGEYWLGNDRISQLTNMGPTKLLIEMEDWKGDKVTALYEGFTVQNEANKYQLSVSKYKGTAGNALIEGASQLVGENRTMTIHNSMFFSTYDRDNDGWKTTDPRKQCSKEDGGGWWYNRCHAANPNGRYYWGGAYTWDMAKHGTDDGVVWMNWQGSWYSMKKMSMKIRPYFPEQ", "T1 sequence (P12799 25-444)": "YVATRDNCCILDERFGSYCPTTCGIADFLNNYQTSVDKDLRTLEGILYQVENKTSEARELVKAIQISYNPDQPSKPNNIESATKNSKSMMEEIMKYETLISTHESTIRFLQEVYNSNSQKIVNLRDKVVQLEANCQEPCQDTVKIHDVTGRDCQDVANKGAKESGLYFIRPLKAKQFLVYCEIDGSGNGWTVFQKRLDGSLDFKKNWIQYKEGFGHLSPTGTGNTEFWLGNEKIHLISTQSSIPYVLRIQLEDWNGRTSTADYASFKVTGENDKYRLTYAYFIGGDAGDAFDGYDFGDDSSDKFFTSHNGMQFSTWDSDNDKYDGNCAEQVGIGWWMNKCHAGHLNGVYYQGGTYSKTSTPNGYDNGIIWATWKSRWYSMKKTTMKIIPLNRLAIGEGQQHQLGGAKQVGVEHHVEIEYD", "experiment": "intrinsic Trp fluorescence quenching", "assay_type": "binding", "conditions": "0.8 mg/ml fibrinogen, Tyrode buffer pH 7.4, 37 °C, 15 min"}, "[1]": {"molecular_target": "T2, bovine serum albumin (BSA) (Bos taurus, UniProt P02769)", "T2 construct": "gene ALB; native mature serum albumin", "T2 sequence (P02769 25-607)": "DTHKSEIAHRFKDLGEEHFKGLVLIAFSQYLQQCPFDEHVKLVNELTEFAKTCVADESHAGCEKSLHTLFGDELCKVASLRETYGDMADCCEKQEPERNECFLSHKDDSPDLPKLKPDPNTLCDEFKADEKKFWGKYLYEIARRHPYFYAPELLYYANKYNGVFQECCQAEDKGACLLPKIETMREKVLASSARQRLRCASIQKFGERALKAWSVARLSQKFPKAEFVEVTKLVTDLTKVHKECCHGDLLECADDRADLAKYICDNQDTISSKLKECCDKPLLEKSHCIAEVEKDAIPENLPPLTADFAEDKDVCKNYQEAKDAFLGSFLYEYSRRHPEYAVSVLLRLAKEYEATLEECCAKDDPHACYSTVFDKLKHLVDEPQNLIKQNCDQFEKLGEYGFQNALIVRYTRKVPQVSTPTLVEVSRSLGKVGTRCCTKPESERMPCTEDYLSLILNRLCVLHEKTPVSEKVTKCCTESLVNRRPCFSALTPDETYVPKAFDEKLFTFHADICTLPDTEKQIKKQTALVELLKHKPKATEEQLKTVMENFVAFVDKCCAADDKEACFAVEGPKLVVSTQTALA", "experiment": "intrinsic Trp fluorescence quenching", "assay_type": "binding", "conditions": "0.8 mg/ml BSA, Tyrode buffer pH 7.4, 37 °C, 15 min"}}}
{"smiles": "C[C@@H]1O[C@@H](OC[C@H]2O[C@@H](Oc3c(-c4ccc(O)c(O)c4)oc4cc(O)cc(O)c4c3=O)[C@H](O)[C@@H](O)[C@@H]2O)[C@H](O)[C@H](O)[C@H]1O", "note": "[rutin]", "values": [{"measurement": "intrinsic Trp fluorescence quenching", "setting": "bovine fibrinogen", "value": "Pre-incubation of rutin and RS with fibrinogen (Figures 6A,B) or albumin (Figures 6C,D) decreased the fluorescence"}, {"measurement": "intrinsic Trp fluorescence quenching", "setting": "[1]", "value": "or albumin (Figures 6C,D) decreased the fluorescence of their Trp residues"}]}
